Results on four compounds are retold here after patent publication US11583516B2, “Dash inhibitors, and uses related thereto” (Trustees of Tufts College, priority 2016, dated 2023).

SMILES strings stand for the structures. Read-outs that look alike come from different tables or passages of the source.

In data set [1] the test system is CT26 cells. In words: CT26 cell viability. Format: cell-based.
The test system of data set [2] is MV4;11 cells. In words: Cell line drug sensitivity (CellTiter-Glo). Format: cell-based. As to conditions: Homo sapiens, MV4-11, 48 h.
Data set [3] relates to NB4 cells. Nature of the data set: Cell line drug sensitivity (CellTiter-Glo). It counts as cell-based. As to conditions: Homo sapiens, NB-4, 48 h.
Data set [4] has as its system DAOY cells. In words: Cell line drug sensitivity (CellTiter-Glo). As to conditions: 48 h. It counts as cell-based. As for the experimental part: (§1) SET-2, RS4;11, and SKM-1 cells were purchased from DSMZ. HL-60, MV4;11, OCI-AML2, NB4, MOLM-13, NOMO-1, DAOY, HEL, IMR-5, K562, Kasumi-1, ONS-76, RDES-1, and TC-71 cells were a gift from Alex Kentsis and verified using STR genotyping (Genetica). […] MCF-7, Jurkat, THP-1, U937, HL-60, MV4;11, OCI-AML2, NB4, MOLM-13, NOMO-1, HEL, K562, SET-2, RS4;11, SKM-1 and Kasumi-1 were grown in RPMI-1640 medium with 10% FBS. All cells were grown at 37° C. in a 5% CO2 incubator. Cell lines were tested for mycoplasma using the MycoAlert Mycoplasma Detection Kit (Lonza).
(§2) Cells were plated (2000 cells/well) in white, 384-well clear bottom plates using an EL406 Microplate Washer/Dispenser (BioTek) in 25 μL final volume of media. Compounds were added using a pintool (CyBio) and cells were incubated for 48 h at 37° C. Assay plates were then removed from the incubator and allowed to equilibrate to room temperature on the bench top before addition of 10 μL of CellTiter-Glo reagent (Promega) according to the manufacturer's instructions. Assay plates were shaken on an orbital shaker for 2 minutes and incubated at room temperature on the bench top for 10 minutes. Luminescence was then read using a Cytation 5 Cell Imaging Multi-Mode Reader (BioTek). (FIG. 6)

For data set [5], the system named is HEL cells. Nature of the data set: Cell line drug sensitivity (CellTiter-Glo). Format: cell-based. As for the experimental part:
as §1, §2

Data set [6] concerns HL-60 cells. In words: Cell line drug sensitivity (CellTiter-Glo). Format: cell-based. Here is the method:
as §1, §2

In data set [7] the test system is HT-1080 cells. Nature of the data set: Cell line drug sensitivity (CellTiter-Glo). It counts as cell-based. As for the experimental part: as §1, §2
Data set [8] relates to IMR-5 cells. In words: Cell line drug sensitivity (CellTiter-Glo). Format: cell-based. As for the experimental part:
as §1, §2

For data set [9], the system named is Jurkat cells. Nature of the data set: Cell line drug sensitivity (CellTiter-Glo). Format: cell-based. Conditions: 48 h. As for the experimental part: as §1, §2
Data set [10] relates to K562 cells. In words: Cell line drug sensitivity (CellTiter-Glo). Format: cell-based. As for the experimental part:
as §1, §2

In data set [11] the test system is KG-1 cells. In words: Cell line drug sensitivity (CellTiter-Glo). It counts as cell-based. As for the experimental part: as §1, §2
In data set [12] the test system is Kasumi-1 cells. In words: Cell line drug sensitivity (CellTiter-Glo). It counts as cell-based. Here is the method:
as §1, §2

The test system of data set [13] is MCF7 cells. Nature of the data set: Cell line drug sensitivity (CellTiter-Glo). It counts as cell-based. Here is the method: as §1, §2
The subject of data set [14] is MOLM-13 cells. In words: Cell line drug sensitivity (CellTiter-Glo). Format: cell-based. Here is the method: as §1, §2
Data set [15] deals with NOMO-1 cells. In words: Cell line drug sensitivity (CellTiter-Glo). Format: cell-based. Here is the method: as §1, §2
The test system of data set [16] is OCI-AML3 cells. In words: Cell line drug sensitivity (CellTiter-Glo). Format: cell-based. Here is the method:
as §1, §2

In data set [17] the test system is ONS-76 cells. Nature of the data set: Cell line drug sensitivity (CellTiter-Glo). It counts as cell-based. Here is the method: as §1, §2
The test system of data set [18] is RDES-1 cells. In words: Cell line drug sensitivity (CellTiter-Glo). Conditions: 48 h. It counts as cell-based. Here is the method:
as §1, §2

Data set [19] has as its system SET-2 cells. In words: Cell line drug sensitivity (CellTiter-Glo). It counts as cell-based. As for the experimental part:
as §1, §2

The test system of data set [20] is SKM-1 cells. Nature of the data set: Cell line drug sensitivity (CellTiter-Glo). It counts as cell-based. Here is the method: as §1, §2
Data set [21] relates to TC-71 cells. In words: Cell line drug sensitivity (CellTiter-Glo). Format: cell-based. Here is the method:
as §1, §2

The subject of data set [22] is THP-1 cells. In words: Cell line drug sensitivity (CellTiter-Glo). Format: cell-based. As for the experimental part: as §1, §2
For data set [23], the system named is U937 cells. Nature of the data set: Cell line drug sensitivity (CellTiter-Glo). Format: cell-based. As for the experimental part:
as §1, §2

Data set [24] concerns RS4;11 cells. Nature of the data set: Cell line drug sensitivity (CellTiter-Glo). Format: cell-based.
Data set [25] concerns AML cell lines. In words: AML cell line sensitivity, summary over the panel. As to conditions: all of these lines. Format: cell-based. Here is the method:
as §1, §2

The test system of data set [26] is MB49 tumor. Nature of the data set: MB49 efficacy studies. Format: in vivo, C57BL/6 mice. Conditions: MB49 model, truncated dosing schedules.
Data set [27] relates to PGE2. In words: Peritoneal PGE2 levels after dosing. It counts as in vivo. As to conditions: even at substantially higher doses than Val-boroPro.
The nature of data set [28]: MTD (survival) of ARI-4268. It counts as in vivo. As to conditions: without PGE2 inhibitor, compared with Val-boroPro.
The conditions of data set [29]: in comparison to Val-boroPro.
The subject of data set [30] is G-CSF. In words: Serum cytokine induction in mice (G-CSF screen). Format: in vivo, BALB/c mice. The source says:
No. MKC00B) • IL-18 (R&D Systems, Cat. […] Systems, Cat. No. […])

Data set [31] relates to rhabdomyosarcoma. As to conditions: established rhabdomyosarcoma, preclinical; cited from earlier work.

As for `CC1([C@H](N)C(=O)N2CCC[C@H]2B(O)O)CCCCC1` (relative stereo) [ARI-4175CH], the EC50 in data set [1] (Mus musculus, CT26) was above 1000 µM. The IC50 in data set [2] was 0.003 µM; in data set [3] it was 0.003 µM; in data set [4] (Homo sapiens, Daoy) it was above 60 µM; in data set [5] (Homo sapiens, 48 h) it was above 60 µM; in data set [6] (Homo sapiens, HL-60, 48 h), 0.003 µM; in data set [7] (Homo sapiens, HT-1080, 48 h), above 60 µM. Besides, the IC50 in data set [8] (Homo sapiens, IMR-5, 48 h) was above 60 µM; in data set [9] (Homo sapiens), above 60 µM; in data set [10] (Homo sapiens, K562, 48 h), above 60 µM; in data set [11] (Homo sapiens, KG-1, 48 h) it was 0.049 µM; in data set [12] (Homo sapiens, Kasumi 1, 48 h) it was above 60 µM; in data set [13] (Homo sapiens, MCF7, 48 h), above 60 µM. In addition, the IC50 was 0.006 µM in data set [14] (Homo sapiens, MOLM-13, 48 h); 0.004 µM in [15] (Homo sapiens, NOMO-1, 48 h); 0.003 µM in data set [16] (Homo sapiens, OCI-AML-3, 48 h); above 60 µM in [17] (Homo sapiens, ONS-76, 48 h); above 60 µM in data set [18]; 0.001 µM in [19] (Homo sapiens, SET-2, 48 h). In addition, the IC50 in [20] (Homo sapiens, SKM-1, 48 h) was 0.001 µM; in data set [21] (TC-71, 48 h) it was above 60 µM; in [22] (Homo sapiens, THP-1, 48 h), 0.006 µM; in data set [23] (Homo sapiens, U-937, 48 h), above 60 µM; in [24] (Homo sapiens, RS4-11, 48 h), 0.013 µM. The “IC50 values over the sensitive AML cell lines” value in data set [25] was “low (single digit) nanomolar”.

As to `CC(C)(F)[C@H](N)C(=O)N1CCC[C@H]1B(O)O` (relative stereo) [ARI-4268], in [26], the Antitumor activity result is “displays antitumor activity in the MB49 mouse tumor model at doses indicating improved therapeutic index”. Besides, in data set [27], the “Peritoneal PGE2 levels” value was “does not induce peritoneal PGE2 levels to the same extent as Val-boroPro”. The “MTD (survival)” value in data set [28] was “dramatically increased MTD (survival) without the need for a PGE2 inhibitor”. Also, in [29], the Oral activity entry is recorded as “good oral activity—on par with highly orally active Val-boroPro”.

In the case of `N[C@H](C(=O)N1CCC[C@H]1B(O)O)C12CC3CC(CC(C3)C1)C2` (relative stereo) [ARI-5544, Gly(1-adamantyl)-boroPro], the EC50 in data set [1] (Mus musculus, CT26) is above 100 µM. Also, the IC50 in data set [2] was 0.002 µM; in data set [3], 0.003 µM; in [4] (Homo sapiens, Daoy), above 60 µM; in data set [5] (Homo sapiens, 48 h), above 60 µM; in [6] (Homo sapiens, HL-60, 48 h), 0.003 µM; in [7] (Homo sapiens, HT-1080, 48 h), above 60 µM. Besides, the 50% inhibitory concentration (IC50) in [8] (Homo sapiens, IMR-5, 48 h) was above 60 µM; in data set [9] (Homo sapiens), above 60 µM; in data set [10] (Homo sapiens, K562, 48 h), above 60 µM; in data set [11] (Homo sapiens, KG-1, 48 h) it was 0.005 µM; in [12] (Homo sapiens, Kasumi 1, 48 h), above 60 µM; in data set [13] (Homo sapiens, MCF7, 48 h), above 60 µM. In addition, the IC50 is 0.005 µM in [14] (Homo sapiens, MOLM-13, 48 h); 0.005 µM in [15] (Homo sapiens, NOMO-1, 48 h); 0.002 µM in data set [16] (Homo sapiens, OCI-AML-3, 48 h); above 60 µM in data set [17] (Homo sapiens, ONS-76, 48 h); above 60 µM in [18]; 0.0002 µM in [19] (Homo sapiens, SET-2, 48 h). The IC50 in [20] (Homo sapiens, SKM-1, 48 h) is 0.0004 µM; in [21] (TC-71, 48 h) it was above 60 µM; in data set [22] (Homo sapiens, THP-1, 48 h) it was 0.005 µM; in data set [23] (Homo sapiens, U-937, 48 h) it was above 60 µM. The “IC50 values over the sensitive AML cell lines” value in [25] is on record as “low (single digit) nanomolar”.

On to `CC(C)(C)[C@H](N)C(=O)N1CCC[C@H]1B(O)O` [ARI-4175, t-butylglycine-boroProline], for which the figures for the “Average [G-CSF] at 6 hrs” value in [30] (20 μg/animal PO) and in data set [30] (20 μg/animal SC) were 19000 pg/mL and 65000 pg/mL, respectively. In data set [1], this compound showed an EC50 above 1000 µM. The 50% inhibitory concentration (IC50) in data set [4] (DAOY, Medulloblastoma, read-out: IC50) is above 60 µM; in [5] (AML/Erythroleukemis M6, 48 h, read-out: IC50) it was above 60 µM; in [6] (HL-60, AML M2, 48 h, read-out: IC50), 0.016 µM; in data set [7] (HT-1080, Fibrosarcoma, 48 h, read-out: IC50), above 60 µM; in data set [8] (IMR-5, Neuroblastoma, 48 h, read-out: IC50), above 60 µM; in data set [9] (T-ALL, read-out: IC50) it was above 60 µM. The IC50 is above 60 µM in [10] (K562, CML/Erythroleukemia, 48 h, read-out: IC50); 0.035 µM in data set [11] (KG-1, AML M0, 48 h, read-out: IC50); above 60 µM in data set [12] (Kasumi-1, AML M2, 48 h, read-out: IC50); above 60 µM in data set [13] (MCF7, Breast, 48 h, read-out: IC50); 0.028 µM in data set [14] (MOLM-13, AML M5, 48 h, read-out: IC50); 0.03 µM in [15] (NOMO-1, AML M5, 48 h, read-out: IC50). The IC50 in [16] (OCI-AML3, AML M4, 48 h, read-out: IC50) was 0.019 µM; in data set [17] (ONS-76, Medulloblastoma, 48 h, read-out: IC50), above 60 µM; in data set [18] (RDES-1, Ewing's sarcoma, read-out: IC50), above 60 µM; in [19] (SET-2, AML/MPN, 48 h, read-out: IC50), 0.002 µM; in data set [20] (SKM-1, AML M5, 48 h, read-out: IC50), 0.007 µM; in data set [21] (TC-71, Ewing's sarcoma, 48 h, read-out: IC50), above 60 µM. Also, the IC50 in data set [22] (THP-1, AML M5, 48 h, read-out: IC50) is 0.023 µM; in data set [23] (U937, AML/histiocytic lymphoma M5, 48 h, read-out: IC50), above 60 µM; in data set [24] (RS4;11, AML/B-ALL, 48 h, read-out: IC50) it was 0.096 µM. Besides, the Anti-tumor activity entry in data set [31] was “significant immune-dependent anti-tumor activity”.
